# In ChEMBL document CHEMBL1146718, “Discovery of a potent, selective and orally active canine COX-2 inhibitor, 2-(3-difluoromethyl-5-phenyl-pyrazol-1-yl)-5-methanesulfonyl-pyridine” (Bioorg Med Chem Lett, 2004):
# Key:
# [1] = in vivo; conditions: dog, plasma, po, 5 mg/kg
# [2] = in vivo; conditions: dog, po, 5 mg/kg
# [3] = in vivo; conditions: dog, po, 5 mg/kg; remark: listed apart in the source
# [4] = in vivo; conditions: dog, po, 5 mg/kg; remark: listed apart in the source
# [5] = in vivo; conditions: dog, plasma, po, 5 mg/kg; remark: listed apart in the source
SMILES,AUC [1],concentration at 24 h [2],half-life [3],Tmax [4],Cmax [5]
CS(=O)(=O)c1ccc(-n2nc(C(F)F)cc2-c2ccc(F)cc2)nc1,7650 ng·h/mL,329 ng/mL,17 h,1.3 h,509 ng/mL
CS(=O)(=O)c1ccc(-n2nc(C(F)F)cc2-c2ccccc2)nc1,,,26 h,1.5 h,1090 ng/mL
CS(=O)(=O)c1ccc(-n2nc(C(F)(F)F)cc2-c2ccccc2)nc1,4280 ng·h/mL,77 ng/mL,13.1 h,0.8 h,611 ng/mL
CS(=O)(=O)c1ccc(-n2nc(C(F)(F)F)cc2-c2ccc(F)cc2)nc1,4820 ng·h/mL,134 ng/mL,17.5 h,0.8 h,540 ng/mL
Cc1ccc(-c2cc(C(F)(F)F)nn2-c2ccc(S(N)(=O)=O)cc2)cc1 [CELECOXIB],3100 ng·h/mL,,3.3 h,,540 ng/mL
